Columns and labels:
[1] = Half-life of Compound 1; details: read-out: t½ (converted)
[2] = system: SKH-1 Elite mice; experiment: Oxazolone model of chronic skin inflammation: blood lymphocyte and white blood cell counts; type: in vivo, mouse; details: day 29; PO; Compound 1 30 mg/kg b.i.d., Dexamethasone 1.5 mg/kg q.d.
Experimental: FIGS. 9A and 9B report the effects on blood lymphocyte (FIG. 9A) and white blood cell (WBC) (FIG. 9B) levels in mice treated as in FIG. 8. Lymphocyte level reduction was severe with dexamethasone treated mice and less so with Compound 1 treatment.
The Oxazolone model of chronic skin inflammation, was tested using Compound 1 and a known anti-inflammatory, dexamethasone. SKH-1 Elite mice were sensitized with 10 µL of a high dose of topical Oxazolone (5% wt/vol in 100% EtOH) on their back and a subsequent chronic inflammation was triggered using low doses of topical Oxazolone (0.1% wt/vol in 100% EtOH) every other day on both flanks. […]
Three hundred (300) µL of whole blood in 10 mM EDTA freshly collected at day 29 of the study and erythrocytes was analyzed for counting of lymphocytes (FIG. 9A) and white blood cells (WBC) (FIG. 9B) using an Advia - 120 hematology analyzer. Lymphocyte and white blood cell (WBC) populations were quantified for each treatment group (n=3, 6, 8, 8, 8, 6, respectively). All data are mean ± s.e.m. and statistical significance was assessed using one-way ANOVA followed by Tukey’s multiple comparisons test with the following adjusted p-value thresholds: <0.05 (*), < 0.01 (**), < 0.001 (***) and <0.0001 (****).

half-life [1] [h] | blood lymphocyte level reduction [2] | Compound
18 |  | Cc1cc(C(=O)N(C)C)cc(NC(=O)[C@H]2CCC(=O)N2C2CCN(Cc3ccc(Cl)c(C)c3)CC2)n1 [Compound 1]
 | severe | C[C@@H]1C[C@H]2[C@@H]3CCC4=CC(=O)C=C[C@]4(C)[C@@]3(F)[C@@H](O)C[C@]2(C)[C@@]1(O)C(=O)CO [Dexamethasone]
